Data published in patent US20050289665A1, “Method for disinfecting seed” (priority 2004, published 2005).
Where two headings read alike, the source gives them in different places.

Assays:
[1] = test system: microbial contaminants on the seeds; details: loblolly pine, 30% H2O2 15 minutes; for contamination of whole seed: TSYG broth at 30° C.
Protocol: Methods: The following disinfection treatment was used for loblolly pine seed: • (1) Seed was placed in a tea strainer (about 100 seed/strainer) and soaked in deionized water for one hour with agitation; • (2) The seed in the tea strainer was soaked in a 10% solution of Liquinox (VWR Scientific) for one hour with agitation; • (3) The seed in the tea strainer was soaked in 30% H2O2 on a rotary shaker in a fume hood for 15 minutes; • (4) The seed in the tea strainer was rinsed 8 times for 10 minutes each in sterile water in a laminar flow hood; • (5) The seed in the tea strainer was hydrated in sterile water for 24 hours in a laminar flow hood; and • (6) The seed in the tea strainer was rinsed three times with sterile water for 10 minutes each.
After disinfection and hydration, seed were removed from the tea strainers and placed on a sterile Petri plate. Seed were individually removed with surface-sterilized latex gloves, cracked using autoclaved Vice-Grips, and placed in sterile quadrant Petri plates (2 seeds/quadrant) containing a drop of sterile water to avoid dehydration before dissection. After dissection, 50 whole seed and 50 dissected embryos were incubated in TSYG broth (Trypticase Soy Broth 30 g/l, Yeast Extract 5 g/l, Glucose 10 g/l, and—for a solid Petri plate or agar slant—Agar 15 g/l) and examined on a daily basis for signs of contamination during an eight week incubation period at 30° C.

[2] = test system: loblolly pine seed; assay: Germination of dissected embryos on medium 185 (normalcy, organ lengths, epicotyl presence) after disinfection of loblolly pine seed (Example 5); details: treatment 1: 30% hydrogen peroxide 15 min, vacuum, day 24 after dissection
Protocol: (§1) Methods: The first treatment was identical to the first treatment (hydrogen peroxide) described in EXAMPLE 4, and the second treatment was identical to the fifth treatment ([…]) described in EXAMPLE 4. Seed coats were cracked and removed, and the de-coated seeds were placed in sterile glass Petri plates (one plate/treatment) containing wet filter paper until dissection. Dissection was performed in quadrant Petri plates. A maximum of four seed were dissected per quadrant. […] Organ lengths and normalcy were assessed after 24 days on the medium.

[3] = test system: microbial contaminants on the seeds; assay: Contamination of dissected embryos after disinfection of loblolly pine seed (Example 5); format: cell-based; details: treatment 1: 30% hydrogen peroxide 15 min, vacuum, day 24 after dissection
Protocol: as §1

Cotyledon Length (cm) [2]: 0.7 cm
Epicotyl Presence (%) [2]: 65.7%
Hypocotyl Length (cm) [2]: 1.2 cm
Normalcy (%) [2]: 85.7%
Radicle Length (cm) [2]: 3.4 cm
SMILES: OO [hydrogen peroxide]
contamination of whole seed ([1]; after eight weeks of incubation): 68%
contamination of whole seed ([1]; by the third day of incubation, 4 out of 50 whole seed): 8%
contamination of dissected embryos ([1]; TSYG broth, eight week incubation at 30° C.): no contamination
Contamination (%) [3]: 0%
